# Measurements: patent publication US9914760B2, “Methods of identifying, isolating and using odorant and aroma receptors” (Firmenich SA, priority 2013, dated 2018)
# How the values were obtained:
# [1] = tested on: olfactory sensory neurons; experiment: Ca2+ imaging of dissociated olfactory sensory neurons (Fura-2); format: cell-based, mouse; conditions: 50 μM each; 6 independent neurons (FIG. 2)
# Description: The olfactory epithelium containing native olfactory neurons from a mouse was isolated and dissociated into single cells and then transferred to a dissociation buffer for a gentle mechanical and enzymatic dissociation. In order to optimize the dissociation protocol, the general procedure for making fresh dissociation buffer was followed as set forth in Araneda et al. (2004), A Pharmacological Profile of the Aldehyde Receptor Repertoire in Rat Olfactory Epithelium. Journal of Physiology: 555:743-756 with the following modifications: DNAse I instead of DNAse II, Ca2+ concentration elevated to 5 mM and pH adjusted at 7.35 at 32°. Dissociated neurons were then seeded on a coverslip allowing the screening of >2,500 cells by fluorescence microscopy. The cells were then loaded with a calcium sensitive dye (Fura-2 AM) for 30 minutes at 31° C. and transferred onto a microscope ready for screening. […]
# Olfactory neurons that responded to indole and skatole were identified by stimulating receptors with 50 μm indole followed by 50 μm skatole and monitoring the intracellular Ca2+ flux indicated by changes in Fura-2 fluorescence. […] Average Fluorescence Intensity, relative fluorescent unit as a result of a ratiometric 340/380 nm recordings.
# OR8S1 = molecular target: T1, OR8S1 (Homo sapiens, UniProt Q8NH09); experiment: cell-based calcium-flux assay, HEK293T with Gα15; conditions: dose-response curves FIG. 6D-J
# T1 construct: expressed in transfected cells
# T1 sequence (Q8NH09 1-359): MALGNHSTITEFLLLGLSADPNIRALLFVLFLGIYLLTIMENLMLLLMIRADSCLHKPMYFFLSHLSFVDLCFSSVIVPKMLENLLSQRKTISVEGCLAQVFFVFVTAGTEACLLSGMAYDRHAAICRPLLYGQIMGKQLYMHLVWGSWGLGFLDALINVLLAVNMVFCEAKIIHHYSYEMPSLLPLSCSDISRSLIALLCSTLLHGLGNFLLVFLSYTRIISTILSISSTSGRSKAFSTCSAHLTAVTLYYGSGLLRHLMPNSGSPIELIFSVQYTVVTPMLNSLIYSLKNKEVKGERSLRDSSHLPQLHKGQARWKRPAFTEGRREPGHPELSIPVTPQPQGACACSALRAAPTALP
# Description: The activity of candidate human indole and skatole malodors receptors OR52N2 (SEQ ID NO: 11 and SEQ ID NO: 12), OR11G2 (SEQ ID NO: 13 and SEQ ID NO: 14, OR5AC2 (SEQ ID NO: 75 and SEQ ID NO: 76), OR4C15 (SEQ ID NO: 79 and SEQ ID NO: 80), OR8S1 (SEQ ID NO: 83 and SEQ ID NO: 84), OR11H6 (SEQ ID NO: 15 and SEQ ID NO: 16) and OR11H4 (SEQ ID NO: 49 and SEQ ID NO: 50) and candidate mouse indole and skatole malodors receptors Olfr665 (SEQ ID NO: 9 and SEQ ID NO 10) and Olfr740 (SEQ ID NO: 1 and SEQ ID NO 2) were confirmed in cell-based calcium-flux assays (FIGS. 6A to 6J). Cells stably co-expressing Rho-tagged human OR52N2 (FIG. 6A, B) or OR11G2 (FIG. 6C) and Gα15 (SEQ ID NO: 25) were exposed to increasing concentrations of skatole or indole. FIG. 6B is a repeat experiment showing similar activity of OR52N2 with indole and skatole. Odorant-induced OR52N2 or OR11G2 activity was detected by measuring the maximum Calcium 5 dye (Molecular Devices) fluorescence change following odorant exposure. Activity is defined as the baseline corrected Relative Fluorescent Units (RFU) ratios normalized to the highest RFU in the experiment in FIG. 6A. […] A cell line lacking a receptor, for example hOR52N2, was used as a control for non-specific activity at high concentrations (‘Indole control’ and ‘Skatole control’). The human receptor OR52N2 (SEQ ID NO: 11 and SEQ ID NO: 12) was identified because of its sequence similarity to mouse Olfr665 (SEQ ID NO: 10), an indole/skatole receptor isolated from olfactory neurons responding to both indole and skatole. The human receptor OR11G2 (SEQ ID NO: 13 and SEQ ID NO: 14) was identified because of its sequence similarity to mouse Olfr740 (SEQ ID NO: 2), an indole/skatole receptor isolated from olfactory neurons responding to both indole and skatole. The receptors were modified with the Rho sequence and stably expressed in HEK 293T cells. Further examples show indole and skatole dose-response curves for human receptors OR5AC2, OR4C15, OR8S1, OR11H6, OR11H4 and mouse receptors Olfr665 and Olfr740 (FIG. 6D-J). The human receptor OR5AC2 (SEQ ID NO: 75 and SEQ ID NO: 76) was identified because of its sequence similarity to mouse Olfr207 (SEQ ID NO: 78), a receptor isolated from olfactory neurons responding to both indole and skatole. The human receptor OR4C15 (SEQ ID NO: 79 and SEQ ID NO: 80) was identified because of its sequence similarity to mouse Olfr211 (SEQ ID NO: 82), a receptor isolated from olfactory neurons responding to both indole and skatole. The human receptor OR8S1 (SEQ ID NO: 83 and SEQ ID NO: 84) was identified because of its sequence similarity to mouse Olfr257 (SEQ ID NO: 86), a receptor isolated from olfactory neurons responding to both indole and skatole. The human receptor OR11H6 (SEQ ID NO: 15 and SEQ ID NO: 16) was identified because of its sequence similarity to mouse Olfr745 (SEQ ID NO: 8), a receptor isolated from olfactory neurons responding to both indole and skatole. The human receptor OR11H4 (SEQ ID NO: 49 and SEQ ID NO: 50) was identified because of its sequence similarity to mouse Olfr746 (SEQ ID NO: 38), a receptor isolated from olfactory neurons responding to both indole and skatole. The mouse receptor Olfr665 (SEQ ID NO: 9 and SEQ ID NO: 10) was identified directly from NGS data from isolated olfactory neurons responding to both indole and skatole. The mouse receptor Olfr740 (SEQ ID NO: 1 and SEQ ID NO: 2) was identified directly from NGS data from isolated olfactory neurons responding to both indole and skatole. Co-expression of the human G alpha subunit Gα15 activates the Gq transduction pathway that leads to an internal Ca2+ increase upon binding to the appropriate ligand.
Compound,"activation of olfactory sensory neurons (intracellular Ca2+ flux, Fura-2 fluorescence) [1]",receptor response in vitro (OR8S1)
"Cc1c[nH]c2ccccc12 [skatole, 3-methyl indole]",activated,responded
c1ccc2[nH]ccc2c1 [indole],activated,responded
